Measurements as given in PubChem BioAssay (NCI).
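Cultured in 96-well plates, cells were exposed to test compound for 48 hours across five concentrations. TGI: concentration producing complete growth inhibition.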

What was measured:
Assay in all cases: DTP human tumour cell line panel, 48 h
TK-10 renal = tested on: TK-10 renal
OVCAR-4 ovarian = tested on: OVCAR-4 ovarian
NCI/ADR-RES ovarian = tested on: NCI/ADR-RES ovarian
EKVX NSCLC = tested on: EKVX NSCLC
NCI-H23 lung = tested on: NCI-H23 lung
T-47D breast = tested on: T-47D breast
HT29 colon = tested on: HT29 colon
UACC-62 melanoma = tested on: UACC-62 melanoma
SR leukemia = tested on: SR leukemia
HOP-92 NSCLC = tested on: HOP-92 NSCLC
786-0 renal = tested on: 786-0 renal
SK-MEL-28 melanoma = tested on: SK-MEL-28 melanoma
OVCAR-8 ovarian = tested on: OVCAR-8 ovarian
MDA-MB-231 breast = tested on: MDA-MB-231 breast
NCI-H226 lung = tested on: NCI-H226 lung
A549 NSCLC = tested on: A549 NSCLC
UO-31 renal = tested on: UO-31 renal
OVCAR-5 ovarian = tested on: OVCAR-5 ovarian
IGROV1 ovarian = tested on: IGROV1 ovarian
ACHN renal = tested on: ACHN renal
K-562 leukemia = tested on: K-562 leukemia
SK-MEL-5 melanoma = tested on: SK-MEL-5 melanoma
NCI-H460 lung = tested on: NCI-H460 lung
MOLT-4 leukemia = tested on: MOLT-4 leukemia
KM12 colon = tested on: KM12 colon
RPMI-8226 leukemia = tested on: RPMI-8226 leukemia
CAKI-1 renal = tested on: CAKI-1 renal
HCT-116 colon = tested on: HCT-116 colon
SF-539 CNS = tested on: SF-539 CNS
SK-OV-3 ovarian = tested on: SK-OV-3 ovarian
SN12C renal = tested on: SN12C renal
CCRF-CEM leukemia = tested on: CCRF-CEM leukemia
UACC-257 melanoma = tested on: UACC-257 melanoma
SF-295 CNS = tested on: SF-295 CNS
RXF 393 renal = tested on: RXF 393 renal
PC-3 prostate = tested on: PC-3 prostate
OVCAR-3 ovarian = tested on: OVCAR-3 ovarian
BT-549 breast = tested on: BT-549 breast
MCF7 breast = tested on: MCF7 breast
MDA-MB-435 = tested on: MDA-MB-435
MDA-N = tested on: MDA-N
COLO 205 colon = tested on: COLO 205 colon
DU-145 prostate = tested on: DU-145 prostate
SK-MEL-2 melanoma = tested on: SK-MEL-2 melanoma
SNB-75 CNS = tested on: SNB-75 CNS
U251 CNS = tested on: U251 CNS
HL-60(TB) leukemia = tested on: HL-60(TB) leukemia
A498 renal = tested on: A498 renal
LOX IMVI melanoma = tested on: LOX IMVI melanoma
HOP-62 NSCLC = tested on: HOP-62 NSCLC
SW-620 colon = tested on: SW-620 colon
HCT-15 colon = tested on: HCT-15 colon
SNB-19 CNS = tested on: SNB-19 CNS
M14 melanoma = tested on: M14 melanoma
HCC-2998 colon = tested on: HCC-2998 colon
NCI-H522 lung = tested on: NCI-H522 lung
MALME-3M melanoma = tested on: MALME-3M melanoma
SF-268 CNS = tested on: SF-268 CNS

O=C(O)C(CCc1ccccc1)N1C(=O)c2ccccc2C1=O (centres undefined)
TGI (TK-10 renal): > 100 µM | TGI (OVCAR-4 ovarian): > 100 µM | TGI (NCI/ADR-RES ovarian): > 100 µM | TGI (EKVX NSCLC): > 100 µM | TGI (NCI-H23 lung): > 100 µM | TGI (T-47D breast): > 100 µM | TGI (HT29 colon): > 100 µM | TGI (UACC-62 melanoma): > 100 µM | TGI (SR leukemia): > 100 µM | TGI (HOP-92 NSCLC): > 100 µM | TGI (786-0 renal): > 100 µM | TGI (SK-MEL-28 melanoma): > 100 µM | TGI (OVCAR-8 ovarian): > 100 µM | TGI (MDA-MB-231 breast): > 100 µM | TGI (NCI-H226 lung): > 100 µM | TGI (A549 NSCLC): > 100 µM | TGI (UO-31 renal): > 100 µM | TGI (OVCAR-5 ovarian): > 100 µM | TGI (IGROV1 ovarian): > 100 µM | TGI (ACHN renal): > 100 µM | TGI (K-562 leukemia): > 100 µM | TGI (SK-MEL-5 melanoma): > 100 µM | TGI (NCI-H460 lung): > 100 µM | TGI (MOLT-4 leukemia): > 100 µM | TGI (KM12 colon): > 100 µM | TGI (RPMI-8226 leukemia): > 100 µM | TGI (CAKI-1 renal): > 100 µM | TGI (HCT-116 colon): > 100 µM | TGI (SF-539 CNS): > 100 µM | TGI (SK-OV-3 ovarian): > 100 µM | TGI (SN12C renal): > 100 µM | TGI (CCRF-CEM leukemia): > 100 µM | TGI (UACC-257 melanoma): > 100 µM | TGI (SF-295 CNS): > 100 µM | TGI (RXF 393 renal): > 100 µM | TGI (PC-3 prostate): > 100 µM | TGI (OVCAR-3 ovarian): > 100 µM | TGI (BT-549 breast): > 100 µM | TGI (MCF7 breast): > 100 µM | TGI (MDA-MB-435): > 100 µM | TGI (MDA-N): > 100 µM | TGI (COLO 205 colon): > 100 µM | TGI (DU-145 prostate): > 100 µM | TGI (SK-MEL-2 melanoma): > 100 µM | TGI (SNB-75 CNS): > 100 µM | TGI (U251 CNS): > 100 µM | TGI (HL-60(TB) leukemia): > 100 µM | TGI (A498 renal): > 100 µM | TGI (LOX IMVI melanoma): > 100 µM | TGI (HOP-62 NSCLC): > 100 µM | TGI (SW-620 colon): > 100 µM | TGI (HCT-15 colon): > 100 µM | TGI (SNB-19 CNS): > 100 µM | TGI (M14 melanoma): > 100 µM

CO/C(=N\N=C\c1ccccc1F)c1ccncc1
TGI (TK-10 renal): > 10 µM | TGI (OVCAR-4 ovarian): > 10 µM | TGI (NCI/ADR-RES ovarian): > 10 µM | TGI (EKVX NSCLC): > 10 µM | TGI (NCI-H23 lung): > 10 µM | TGI (T-47D breast): > 10 µM | TGI (HT29 colon): > 10 µM | TGI (SR leukemia): > 10 µM | TGI (HOP-92 NSCLC): > 10 µM | TGI (786-0 renal): > 10 µM | TGI (HCC-2998 colon): > 10 µM | TGI (NCI-H522 lung): > 10 µM | TGI (OVCAR-8 ovarian): > 10 µM | TGI (MDA-MB-231 breast): > 10 µM | TGI (NCI-H226 lung): > 10 µM | TGI (A549 NSCLC): > 10 µM | TGI (UO-31 renal): > 10 µM | TGI (OVCAR-5 ovarian): > 10 µM | TGI (ACHN renal): > 10 µM | TGI (K-562 leukemia): > 10 µM | TGI (NCI-H460 lung): > 10 µM | TGI (MOLT-4 leukemia): > 10 µM | TGI (KM12 colon): > 10 µM | TGI (RPMI-8226 leukemia): > 10 µM | TGI (CAKI-1 renal): > 10 µM | TGI (HCT-116 colon): > 10 µM | TGI (SN12C renal): > 10 µM | TGI (MALME-3M melanoma): > 10 µM | TGI (CCRF-CEM leukemia): > 10 µM | TGI (UACC-257 melanoma): > 10 µM | TGI (SF-295 CNS): > 10 µM | TGI (SF-268 CNS): > 10 µM | TGI (RXF 393 renal): > 10 µM | TGI (PC-3 prostate): > 10 µM | TGI (OVCAR-3 ovarian): > 10 µM | TGI (BT-549 breast): > 10 µM | TGI (MCF7 breast): > 10 µM | TGI (MDA-MB-435): > 10 µM | TGI (MDA-N): > 10 µM | TGI (COLO 205 colon): > 10 µM | TGI (DU-145 prostate): > 10 µM | TGI (SK-MEL-2 melanoma): > 10 µM | TGI (U251 CNS): > 10 µM | TGI (HL-60(TB) leukemia): > 10 µM | TGI (LOX IMVI melanoma): > 10 µM | TGI (HOP-62 NSCLC): > 10 µM | TGI (SW-620 colon): > 10 µM | TGI (HCT-15 colon): > 10 µM | TGI (SNB-19 CNS): > 10 µM | TGI (M14 melanoma): > 10 µM
